In patent US5182300A, “Furosemide salts” (Roussel Uclaf, priority 1989, dated 1993):
Where a name gives a salt, the structure may show the parent alone.

Columns and labels:
[1] = initial measurement of the pH of the solution; type: physicochemical
[2] = tested on: atopic asthmatic patients; conditions: aerosol; bronchospasms induced by physical exercises, ultrasonic fogs and immunological stimulations; 10 mg/ml sodium salt solution inhaled for 15 to 20 minutes; cited from earlier work

NS(=O)(=O)c1cc(C(=O)O)c(NCc2ccco2)cc1Cl [furosemide salt of L-lysine, L-lysine salt of furosemide]
pH (initial measurement) ([1]; Sol. 1, water, 97.2 mg/ml): 7.00
pH (initial measurement) ([1]; Sol. 2, physiol. sol., 184.4 mg/ml): 7.09
pH (initial measurement) ([1]; Sol. 3, water, 275.3 mg/ml): 7.32
pH (initial measurement) ([1]; Sol. 4, water, 125.0 mg/ml, kept at 60° C.): 7.06
pH (initial measurement) ([1]; Sol. 5, water, 125.0 mg/ml, kept at 25° C. away from the light): 7.06
pH (initial measurement) ([1]; Sol. 6, water, 90.4 mg/ml): 6.95
pH (initial measurement) ([1]; Sol. 7, water containing 4% by weight of mannitol, 72.1 mg/ml): 7.06

NS(=O)(=O)c1cc(C(=O)O)c(NCc2ccco2)cc1Cl [furosemide, 4-chloro-N-furyl-5-sulfamoyl-anthranylic acid]
prevention of bronchospasms [2]: prevent bronchospasms
